From patent US5008294A, “Methods of treating tumors with compositions of catecholic butanes” (priority 1987, dated 1991)
Where two headings read alike, the source gives them in different places.

How the values were obtained:
[1] = system: human lung tumor cell line LX-T; experiment: Antitumor effect against human lung tumor cell line LX-T (clonogenic assay / DNA flow cytometry with DAPI, Example 5); assay type: cell-based
Experimental: The antitumor effect of NDGA against the human lung tumor cell line LX-T was determined utilizing a clonogenic assay.
Serial dilutions of the test stock solutions were made in 15 ml of Ca^2+ --and Mg^2+ --free Hank's balanced salt solution (HBSS).
The LX-T cells were incubated in the presence of various amounts of NDGA, and the antitumor effect was determined by measuring the DNA […] of the LX-T nuclei using DNA flow cytometric analysis with a DNA-specific fluorochrome, 4', 6-diamidino-2-phenylindole (DAPI).

[2] = system: human breast adenocarcinoma, MX-1; experiment: Antineoplastic activity by topical application in athymic mice implanted intradermally with human breast adenocarcinoma MX-1 (Examples 7 and 8); assay type: in vivo; details: 4.4 wt/wt% composition (Table 8)
Experimental: A composition containing 17.6% NDGA and 1% BHT in Pego 400 was tested for antineoplastic activity in athymic mice implanted with human breast adenocarcinoma, MX-1. Each animal was innoculated intradermally on the dorsum near the nape of the neck with 0.5 ml of a MX-1 homogenate. The animals were treated by topical application with the NDGA composition after day 23. Compositions containing 4.4 wt/wt% of meso and DL NDGA were tested for efficacy against the MX-1 tumor as in Example 7.

[3] = Absorption of harmful sunlight (ultraviolet) radiation (Example 10); assay type: physicochemical
Experimental: The ability of NDGA to absorb harmful sunlight radiation was tested.

[4] = system: MX-1 (human breast adenocarcinoma) cells; experiment: In vivo antitumor effect on MX-1 cells implanted subcutaneously in nude mice, intratumoral injection (Example 6); details: 0.1 ml injected directly into the tumor
Experimental: The in vivo antitumor effect of NDGA at various survival levels was determined using MX-1 (human breast adenocarcinoma) cells implanted subcutaneously in the flank of nude mice.
Tumors which reached the 25-100 mm^2 range were used for the experiment. 0.1 ml of the test compound in solution was injected directly into the tumor. The tumors were measured periodically to determine their weight until 60 days after the initial treatment or all mice had died.

[5] = system: CMT-12 cultured canine breast adenocarcinoma tumor cells; experiment: Clonogenic assay, antiproliferative effect on CMT-12 canine breast adenocarcinoma cells (Example 3); assay type: cell-based; details: for No. Tumor Colonies Surviving: one hour at 37° C
Experimental: The antiproliferative effect of NDGA on CMT-12 cultured canine breast adenocarcinoma tumor cells was evaluated in clonogenic (cancer cell) assays.
(§1) Single cell suspensions of tumor cells harvested from culture flasks were exposed to the different compositions of NDGA for one hour at 37° C in liquid medium, and the cells were then washed twice, suspended in agarose medium and plated and the number of colony forming cells were determined. Results are expressed as percent inhibition of survival of clonogenic cells in treated cultures relative to nontreated control cultures. Significant anticancer activity was defined as>70% inhibition of the survival of colony-forming (tumor) cells.

TPA tumor promotion = experiment: Antipromoting activity in mice: DMBA+NDGA+TPA (Example 9); assay type: in vivo, SENCAR mice; details: NDGA 9 mg topical 30 minutes prior to each TPA application
Experimental: (§2) Mice were exposed to dimethyl benzanthracene (DMBA), a classical tumor inducer, and to phorbol ester (TPA), a classical tumor promoter, after having been treated with NDGA.
(§3) Twenty mice were included in each of the following groups:
(§4) 1. Positive control group: DMBA+TPA. Female SENCAR mice 6-8 weeks old received a single topical application of […] of DMBA in 0.2 ml of acetone as the initiating agent. After one week, animals received twice weekly applications of tumor promoter TPA in 0.1 ml of acetone. Tumor formation was recorded weekly.
2. Antipromoting activity: DMBA+NDGA+TPA. 30 minutes prior to each application of TPA animals received topical application of NDGA (9 mg.) in 0.2 ml of acetone.

melanoma (B-16) = experiment: Effect against melanoma (B-16); parameters: species or system mouse
tumor induction by DMBA = experiment: Anticarcinogenic activity in mice: NDGA+DMBA+TPA (Example 9); assay type: in vivo, SENCAR mice; details: NDGA 3 mg topical, five consecutive days before DMBA and TPA
Experimental: as §2, §3, §4
3. Anticarcinogenic activity: NDGA+DMBA+TPA. For five consecutive days animals received topical applications of NDGA (3 mg.) in 0.2 ml of acetone. 24 hours after the last treatment with NDGA, animals received DMBA and TPA exactly as in the positive control group.

[6] = system: hepatic and colon carcinoma; experiment: Treatment of hepatic and colon carcinoma
Source text: The catecholic butanes, when applied parenterally or by injection, are excreted primarily through the liver and gut, and therefore exert preferential cytotoxicity to tumors located in those organs.

[7] = Stability against oxidation; assay type: physicochemical; details: for example, by air; more stable at lower pH
Source text: The pH of the formulation is important in assuring stability of the catecholic butane as well as assuring that the formulation is physiologically acceptable to the patient. […] Such oxidation can result in discoloration of the formulation rendering it unacceptable for pharmaceutical use. […] Therefore, it is preferred that if the formulation is to be exposed to oxidizing conditions the pH be maintained below about 7.5 and preferably below about 6 in order to provide maximum stability for the catechol against oxidation. However, if oxidizing conditions can be avoided, for example, by storage of the formulation under an inert atmosphere such as nitrogen, a higher pH can be used. The pH of the formulation may be maintained through the use of toxicologically-acceptable buffers. Such buffers are well known in the pharmaceutical formulation art, and include hydrochloric acid buffer, acid phthalate buffer, phosphate buffer and citric acid/sodium citrate buffer.

[8] = system: human breast adenocarcinoma (MX-1); experiment: Effect against human breast adenocarcinoma (MX-1)
tumor cells = experiment: Enhancement of X-ray radiation effectiveness by topical application; details: applied topically; without radiation toxicity to surrounding uninvolved skin
Source text: Consequently, the catecholic butanes may be useful in the treatment of cutaneous afflictions such as Kaposi's sarcoma.

[9] = system: several types of cancer cells; details: Leiter et al.; cited from earlier work
[10] = system: lung squamous cell carcinoma (LX-1); experiment: Effect against lung squamous cell carcinoma (LX-1); parameters: species or system human
human cancer patients = details: ingested; Smart et al. 1970; cited from earlier work
[11] = system: MC-1 equine sarcoid-derived cell line; experiment: Inhibition of in vitro colony growth of MC-1 equine sarcoid-derived cell line (Example 4); assay type: cell-based; details: for inhibition at 18 µM / inhibition at 27 µM / inhibition at 56 µM: Equus caballus, 336 h; for inhibition at 18 µM: 18 MicroMolar; for inhibition at 27 µM: 27 MicroMolar; for inhibition at 56 µM: 56 MicroMolar
Experimental: as §1
Compositions of NDGA were tested for their ability to inhibit in vitro growth of the MC-1 equine sarcoid-derived cell line, in experiments similar to those of Example 3.

[12] = Day 14, mean of 3 experiments, read-out: % Inhibition (Mean)
[13] = Day 14, read-out: Percentage Inhibition of Colony Growth, Experiment #1
[14] = Day 14, read-out: Percentage Inhibition of Colony Growth, Experiment #2
[15] = Day 14, read-out: Percentage Inhibition of Colony Growth, Experiment #3

SMILES: COc1cccc2c1C(=O)c1c(O)c3c(c(O)c1C2=O)C[C@@](O)(C(=O)CO)C[C@@H]3O[C@H]1C[C@H](N)[C@H](O)[C@H](C)O1 [Adriamycin, reference compound]
- EC50 ([1]; read-out: ED(50)): 25.6 µM

SMILES: C[C@H](Cc1ccc(O)c(O)c1)[C@H](C)Cc1ccc(O)c(O)c1 (relative stereo) [dl-NDGA]
- Tumor Free 60 Days [2]: 4/5
- Tumor Recurrence [2]: 0

SMILES: CO[C@@]12[C@H](COC(N)=O)C3=C(C(=O)C(C)=C(N)C3=O)N1C[C@@H]1N[C@@H]12 [Mutamycin, reference compound]
- EC50 ([1]; read-out: ED(50)): 18.4 µM

SMILES: C[C@H](Cc1ccc(O)c(O)c1)[C@@H](C)Cc1ccc(O)c(O)c1 [NDGA, meso-1,4-bis (3,4-dihydroxyphenyl)-2,3-dimethylbutane]
- absorption of sunlight ([3]; result in words): strongly absorb sunlight at wavelengths known to produce sunburn
- strong absorption in the ultraviolet region ([3]; solution in methanol): 2816 Angstroms
- ED(50) [4]: 13.62 Micromoles
- ED(75) [4]: 25.66 Micromoles
- ED(90) [4]: 48.33 Micromoles
- ED(95) [4]: 74.34 Micromoles
- No. Tumor Colonies Surviving ([5]; 5 MicroMolar): 229.7 ± 10.9
- No. Tumor Colonies Surviving ([5]; 10 MicroMolar): 173.3 ± 23.3
- No. Tumor Colonies Surviving ([5]; 18 microMolar): 190 ± 16.3
- No. Tumor Colonies Surviving ([5]; 27 microMolar): 40 ± 16.3
- No. Tumor Colonies Surviving ([5]; 56 microMolar): 3.3 ± 4.7
- inhibition at 10 µM ([5]; Canis lupus familiaris, 10 MicroMolar, survival of clonogenic cells relative to nontreated control): 82.5%
- inhibition at 18 µM ([5]; Canis lupus familiaris, 18 microMolar, survival of clonogenic cells relative to nontreated control): 90.9%
- inhibition at 27 µM ([5]; Canis lupus familiaris, 27 microMolar, survival of clonogenic cells relative to nontreated control): 98.1%
- inhibition at 56 µM ([5]; Canis lupus familiaris, 56 microMolar, survival of clonogenic cells relative to nontreated control): 99.8%
- prevention of TPA tumor promotion (TPA tumor promotion): nearly completely prevent TPA tumor promotion
- effectiveness against melanoma (B-16) (melanoma (B-16)): particularly effective
- reduction of the potential of tumor induction by DMBA (tumor induction by DMBA): significantly reduce the potential of tumor induction by DMBA
- Tumor Free 60 Days [2]: 4/5
- Tumor Recurrence [2]: 0
- effectiveness in treating hepatic and colon carcinoma [6]: effective in treating hepatic and colon carcinoma
- EC50 ([1]; 50% cell growth inhibition, ± SD, read-out: Calculated ED(50)): 17.6 ± 4.07 µM
- IC75 ([1]; 75% cell growth inhibition, ± SD, read-out: Calculated ED(75)): 26.6 ± 12.1 µM
- IC90 ([1]; 90% cell growth inhibition, ± SD, read-out: Calculated ED(90)): 41.1 ± 28.1 µM
- IC95 ([1]; 95% cell growth inhibition, ± SD, read-out: Calculated ED(95)): 55.9 ± 46.8 µM
- EC50 ([1]; comparison with known anticancer drugs (Table 5B), read-out: ED(50) (the source's name)): 17.6 µM
- susceptibility to oxidation [7]: susceptible to oxidation
- effectiveness against human breast adenocarcinoma (MX-1) [8]: particularly effective
- enhancement of X-ray radiation effectiveness (tumor cells): enhance the X-ray radiation effectiveness of the tumor cells without radiation toxicity to surrounding uninvolved skin
- screening result [9]: negative results
- effectiveness against lung squamous cell carcinoma (LX-1) [10]: particularly effective
- clinical outcome (human cancer patients): some positive results
- inhibition at 18 µM [11, 12]: 32.4%
- inhibition at 18 µM [11, 13]: 20.9%
- inhibition at 18 µM [11, 14]: 36.7%
- inhibition at 18 µM [11, 15]: 39.5%
- inhibition at 27 µM [11, 12]: 47%
- inhibition at 27 µM [11, 13]: 32.8%
- inhibition at 27 µM [11, 14]: 58.9%
- inhibition at 27 µM [11, 15]: 49.3%
- inhibition at 56 µM [11, 12]: 45.3%
- inhibition at 56 µM [11, 13]: 33%
- inhibition at 56 µM [11, 14]: 62.2%
- inhibition at 56 µM [11, 15]: 40.7%
- inhibiting colony growth over the duration of the assay ([11]; especially noticable at 27 and 56 microMolar NDGA): uniformly successful in inhibiting colony growth

SMILES: O=c1[nH]cc(F)c(=O)[nH]1 [Composition 5-FU, reference compound]
- EC50 ([1]; read-out: ED(50)): 102 µM
